Calls of active or inactive are those of the source. No cut-off for these calls is given here.
Experiments:
Cruzipain [1] = target: T1, Cruzipain (Trypanosoma cruzi, UniProt P25779); assay: Competitive inhibition of recombinant Trypanosoma cruzi cruzain in presence of varying levels of Z-phe-Arg-amidomethylcoumarin substrate by Lineweaver-Burk plot analysis
Trypanosoma cruzi [2] = assay: Antitrypanosomal activity against Trypanosoma cruzi Tulahuen trypomastigote forms infected in mouse L929 cells after 96 hrs by chlorophenol red-beta-D-galactopyranoside dye based assay; assay type: functional, cell-based; conditions: L929, 96 h
[3] = target: Cathepsin B (Rattus norvegicus) (UniProt P00787); assay: Inhibition of rat cathepsin B at 100 uM using cbz-phe-Arg-amidomethylcoumarin as substrate measured for 15 mins by fluorescence assay relative to control
[4] = Selectivity index, ratio of CC50 for mouse L929 cells to IC50 for Trypanosoma cruzi Tulahuen trypomastigote forms infected in mouse L929 cells; assay type: toxicity, cell-based; conditions: read-out: Ratio CC50/IC50
[5] = target: Cathepsin S (Homo sapiens) (UniProt P25774); assay: Inhibition of recombinant human cathepsin S at 100 uM using cbz-val-val-arg-7-amino-4-methylcoumarin as substrate measured for 15 mins by fluorescence assay relative to control
Trypanosoma brucei [6] = assay: Inhibition of recombinant Trypanosoma brucei rhodesain at 100 uM using Z-phe-Arg-amidomethylcoumarin as substrate by fluorometric method relative to control
[7] = target: Cruzipain (Trypanosoma cruzi) (UniProt P25779); assay: Inhibition of recombinant Trypanosoma cruzi cruzain at 100 uM using Z-phe-Arg-amidomethylcoumarin as substrate by fluorometric method relative to control
[8] = target: Cathepsin B (Rattus norvegicus) (UniProt P00787); assay: Inhibition of rat cathepsin B at 100 uM using cbz-phe-Arg-amidomethylcoumarin as substrate preincubated for 5 mins followed by substrate addition measured for 15 mins by fluorescence assay relative to control
[9] = Cytotoxicity against mouse L929 cells after 96 hrs by alamar blue assay; assay type: cell-based
Cruzipain [10] = target: T1, Cruzipain; assay: Inhibition of recombinant Trypanosoma cruzi cruzain using Z-phe-Arg-amidomethylcoumarin as substrate by fluorometric method
[11] = target: Cathepsin S (Homo sapiens) (UniProt P25774); assay: Inhibition of recombinant human cathepsin S at 100 uM using cbz-val-val-arg-7-amino-4-methylcoumarin as substrate preincubated for 5 mins followed by substrate addition measured for 15 mins by fluorescence assay relative to control
Trypanosoma cruzi [12] = assay: Antitrypanosomal activity against Trypanosoma cruzi Tulahuen trypomastigote forms infected in mouse L929 cells up to 250 uM after 96 hrs by chlorophenol red-beta-D-galactopyranoside dye based assay; assay type: functional, cell-based
[13] = Inhibition of recombinant Trypanosoma brucei rhodesain using Z-phe-Arg-amidomethylcoumarin as substrate by fluorometric method
[14] = target: Cruzipain (Trypanosoma cruzi) (UniProt P25779); assay: Inhibition of recombinant Trypanosoma cruzi cruzain at 100 uM in AcOH/AcONA buffer using Z-phe-Arg-amidomethylcoumarin as substrate by fluorometric method relative to control
Trypanosoma brucei [15] = assay: Inhibition of recombinant Trypanosoma brucei rhodesain at 100 uM in AcOH/AcONA buffer using Z-phe-Arg-amidomethylcoumarin as substrate by fluorometric method relative to control
[16] = Inhibition of recombinant Trypanosoma brucei rhodesain in AcOH/AcONA buffer using Z-phe-Arg-amidomethylcoumarin as substrate by fluorometric method
[17] = target: Cathepsin B (Rattus norvegicus) (UniProt P00787); assay: Inhibition of rat cathepsin B at 1 uM using cbz-phe-Arg-amidomethylcoumarin as substrate measured for 15 mins by fluorescence assay relative to control
[18] = target: Cathepsin B (Rattus norvegicus) (UniProt P00787); assay: Inhibition of rat cathepsin B at 1 uM using cbz-phe-Arg-amidomethylcoumarin as substrate preincubated for 5 mins followed by substrate addition measured for 15 mins by fluorescence assay relative to control
[19] = target: Cathepsin S (Homo sapiens) (UniProt P25774); assay: Inhibition of recombinant human cathepsin S at 1 uM using cbz-val-val-arg-7-amino-4-methylcoumarin as substrate measured for 15 mins by fluorescence assay relative to control
[20] = target: Cathepsin S (Homo sapiens) (UniProt P25774); assay: Inhibition of recombinant human cathepsin S at 1 uM using cbz-val-val-arg-7-amino-4-methylcoumarin as substrate preincubated for 5 mins followed by substrate addition measured for 15 mins by fluorescence assay relative to control

T1 sequence (P25779 whole entry): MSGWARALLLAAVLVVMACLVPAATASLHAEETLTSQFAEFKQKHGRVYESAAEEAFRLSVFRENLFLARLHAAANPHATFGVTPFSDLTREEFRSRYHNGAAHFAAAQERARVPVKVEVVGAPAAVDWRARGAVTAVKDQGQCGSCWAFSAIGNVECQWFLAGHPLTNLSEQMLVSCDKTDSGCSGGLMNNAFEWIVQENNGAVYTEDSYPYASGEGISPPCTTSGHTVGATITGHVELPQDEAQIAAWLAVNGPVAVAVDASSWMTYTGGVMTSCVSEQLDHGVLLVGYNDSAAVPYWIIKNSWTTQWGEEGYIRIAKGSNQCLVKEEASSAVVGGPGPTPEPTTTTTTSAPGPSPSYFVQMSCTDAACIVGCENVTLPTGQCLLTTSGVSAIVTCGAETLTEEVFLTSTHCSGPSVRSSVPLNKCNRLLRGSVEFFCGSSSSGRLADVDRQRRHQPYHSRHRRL
Chain of Cathepsin S (Homo sapiens) (P25774 115-331 limits assumed): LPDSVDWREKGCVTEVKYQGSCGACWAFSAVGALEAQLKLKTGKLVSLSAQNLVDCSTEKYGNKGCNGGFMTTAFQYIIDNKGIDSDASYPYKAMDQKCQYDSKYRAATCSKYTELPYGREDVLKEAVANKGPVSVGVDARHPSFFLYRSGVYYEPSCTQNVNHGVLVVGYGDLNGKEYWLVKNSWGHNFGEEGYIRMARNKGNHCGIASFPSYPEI
Chain of Cathepsin B (Rattus norvegicus) (P00787 80-333 limits assumed): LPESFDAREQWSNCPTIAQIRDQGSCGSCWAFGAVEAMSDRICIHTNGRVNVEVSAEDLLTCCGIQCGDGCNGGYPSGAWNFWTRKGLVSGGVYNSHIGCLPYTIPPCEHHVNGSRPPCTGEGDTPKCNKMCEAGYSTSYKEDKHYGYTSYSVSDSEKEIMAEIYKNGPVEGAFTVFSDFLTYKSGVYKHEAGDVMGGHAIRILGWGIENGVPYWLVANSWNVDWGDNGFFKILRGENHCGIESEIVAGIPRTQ
Chain of Cruzipain (Trypanosoma cruzi) (P25779 123-467 limits assumed): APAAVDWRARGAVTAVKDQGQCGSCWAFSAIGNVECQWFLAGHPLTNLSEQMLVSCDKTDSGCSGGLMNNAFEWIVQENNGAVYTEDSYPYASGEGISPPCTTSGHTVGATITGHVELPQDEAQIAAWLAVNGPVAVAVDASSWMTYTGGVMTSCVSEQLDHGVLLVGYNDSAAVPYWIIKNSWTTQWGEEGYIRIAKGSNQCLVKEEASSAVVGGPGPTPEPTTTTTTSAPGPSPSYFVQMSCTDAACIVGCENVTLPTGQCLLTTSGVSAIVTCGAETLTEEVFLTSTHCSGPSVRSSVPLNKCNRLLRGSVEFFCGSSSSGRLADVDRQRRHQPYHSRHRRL

| Compound | IC50 (Trypanosoma cruzi [2]) | selectivity ratio [4] | inhibition (Trypanosoma brucei [6]) | inhibition [7] | CC50 at 96 h [9] | Activity (Trypanosoma cruzi [12]) | also measured |
| --- | --- | --- | --- | --- | --- | --- | --- |
| Clc1ccc2c(NCCCN3CCOCC3)ccnc2c1 | 67.7 µM | 1.8 | 51% | 88% | 123 µM |  | Ki (Cruzipain [1]): 12.1 µM; inhibition [3]: 6%; inhibition [5]: 13%; inhibition [8]: 8%; IC50 (Cruzipain [10]): 15 µM; inhibition [11]: 10% |
| Clc1ccc2[nH]c(CNCc3ccccc3)cc2c1 | 25 µM | 1.2 | 5% | 4% | 31 µM |  |  |
| c1ccc2c(c1)CCN(c1ccncn1)C2 | 3.1 µM | 128 | 20% | 15% | 400 µM |  |  |
| Clc1ccc2c(NCCN3CCCCC3)ccnc2c1 | 57.6 µM | 1.1 | 56% | 43% | 64.5 µM |  |  |
| c1c[nH]c(CNCCCN2CCOCC2)c1 |  |  | 15.1% | 0% |  | inactive |  |
| OCCCNc1ccnc2cc(Cl)ccc12 |  |  | 63% | 67% |  | inactive | inhibition [3]: 8%; inhibition [5]: 14%; inhibition [8]: 5%; IC50 (Cruzipain [10]): 28 µM; IC50 [13]: 72 µM; inhibition [11]: 4% |
| c1ccc2[nH]c(CNC3CCCCC3)cc2c1 |  |  | 8% | 6% |  | inactive |  |
| c1ccc(CNCc2cc3ccccc3[nH]2)cc1 |  |  | 8% | 9% |  | inactive |  |
| OCCN1CCN(c2ccnc3cc(Cl)ccc23)CC1 |  |  |  |  |  | inactive | inhibition [14]: 42.6%; inhibition (Trypanosoma brucei [15]): 53% |
| Clc1ccc2[nH]c(CNC3CCCCC3)cc2c1 | 10.7 µM | 1.2 | 4% | 8% | 12.5 µM |  |  |
| O=C(CN1CCc2ccccc2C1)Nc1ccccc1 | 245 µM | 1.5 | 19.1% | 7.7% | 375 µM |  |  |
| O=C(CNCCCN1CCOCC1)Nc1ccc(Cl)cc1 |  |  | 21% | 16.5% |  | inactive |  |
| O=C(CNc1ccnc2cc(Cl)ccc12)N1CCOCC1 |  |  | 61% | 55% |  | inactive | IC50 [13]: 48 µM |
| Clc1ccc2c(NCCN3CCOCC3)ccnc2c1 |  |  | 61% | 56% |  | inactive | IC50 (Cruzipain [10]): 41 µM; IC50 [13]: 61 µM |
| O=C(CNCCCN1CCOCC1)Nc1ccccc1 |  |  | 7.4% | 2.9% |  | inactive |  |
| CCCNc1ccnc2cc(Cl)ccc12 | 125 µM | 2.3 | 49% | 53% | 283 µM |  |  |
| OCCNc1ccnc2cc(Cl)ccc12 |  |  | 61% | 60% |  | inactive | IC50 (Cruzipain [10]): 62 µM; IC50 [13]: 58 µM |
| NCCNc1ccnc2cc(Cl)ccc12 | 77.5 µM | < 2.5 |  |  | < 194 µM |  | inhibition [14]: 44%; inhibition (Trypanosoma brucei [15]): 62%; IC50 [16]: 126 µM |
| Cc1ccc(NC(=O)CN2CCc3ccccc3C2)cc1 | 83.3 µM | 1.5 | 16.7% | 15.3% | 125 µM |  |  |

| Compound | IC50 (Trypanosoma cruzi [2]) | selectivity ratio [4] | inhibition (Trypanosoma brucei [6]) | inhibition [7] | CC50 at 96 h [9] | Activity (Trypanosoma cruzi [12]) | also measured |
| --- | --- | --- | --- | --- | --- | --- | --- |
| c1cc(NCCCN2CCOCC2)ncn1 |  |  | 5% | 1% |  | inactive |  |
| Cc1ccc(NC(=O)CNCCCN2CCOCC2)cc1 |  |  | 13.1% | 3.5% |  | inactive |  |
| CN1CCN(CC(=O)Nc2ccc(Cl)cc2)CC1 |  |  | 22.6% | 28.5% |  | inactive |  |
| CN1CCN(CC(=O)Nc2ccccc2)CC1 |  |  | 7.4% | 38.6% |  | inactive |  |
| c1c[nH]c(CN2CCc3ccccc3C2)c1 |  |  | 49.1% | 3.2% |  | inactive |  |
| c1ccc2[nH]c(CNCCCN3CCOCC3)cc2c1 |  |  | 7% | 4% |  | inactive |  |
| O=C(CN1CCc2ccccc2C1)Nc1ccc(Cl)cc1 | 64.2 µM | < 1.9 | 20.5% | 18.2% | < 125 µM |  |  |
| CN1CCN(c2ccncn2)CC1 |  |  | 13% | 5% |  | inactive |  |
| Cc1ccc(NC(=O)CN2CCN(C)CC2)cc1 |  |  | 15.5% | 0% |  | inactive |  |
| O=C(Cn1ccnc1[N+](=O)[O-])NCc1ccccc1 [BENZNIDAZOLE] | 3.8 µM |  |  |  |  |  |  |
| Clc1ccc2c(NCc3ccccc3)ccnc2c1 | 37.2 µM | 1.2 | 71% | 65% | 46.5 µM |  | inhibition [3]: 2%; inhibition [5]: 17%; inhibition [8]: 9%; IC50 (Cruzipain [10]): 44 µM; IC50 [13]: 34.2 µM; inhibition [11]: 12% |
| CN1CCN(Cc2ccc[nH]2)CC1 |  |  | 32.1% | 10.9% |  | inactive |  |
| Clc1ccc2[nH]c3c(NCCCN4CCOCC4)ncnc3c2c1 |  |  |  |  |  |  | IC50 (Cruzipain [10]): 15 µM |
| Clc1ccc2c(NCCCN3CCCCC3)ccnc2c1 | 38.2 µM | 1.6 | 61% | 53% | 61.5 µM |  |  |
| c1c[nH]c(CN2CCOCC2)c1 |  |  | 66.7% | 23.6% |  | inactive | IC50 [13]: 55 µM |
| NCCCNc1ccnc2cc(Cl)ccc12 |  |  |  |  |  | inactive | inhibition [14]: 39%; inhibition (Trypanosoma brucei [15]): 53% |
| CC(C)C[C@H](NC(=O)[C@@H]1O[C@H]1C(=O)O)C(=O)NCCCCN=C(N)N |  |  |  |  |  |  | inhibition [17]: 99%; inhibition [18]: 100%; inhibition [19]: 100%; inhibition [20]: 100% |
| Clc1ccc2[nH]c(CNCCCN3CCOCC3)cc2c1 | 38.9 µM | 1.9 | 1% | 15% | 75 µM |  |  |
